Here are results for two sequences from US7271239B2, “D-isomers of antimicrobial peptide” (The Research Foundation of State University of New York, priority 2004, dated 2007).

One data set concerns C. albicans strain DIS. Format: in vivo, mice ICR strain. Particulars: mouse, in vivo. As for the experimental part: A previously described protocol was adopted (14). Mice were immunosuppressed with two subcutaneous injections of prednisolone at a dose of 100 mg/kg body weight 1 day prior to and 3 days after the infection with C. albicans. Tetracycline hydrochloride in drinking water at a concentration of 0.83 mg/ml was given to mice beginning 1 day before infection. Mice were anesthetized by intramuscular injection with 60 μl of 2 mg/ml chlorpromazine chloride, using a dose of 10 mg/kg body weight of mice. While under anesthesia, a small cotton ball soaked in 0.1 ml aliquot of C. albicans cell suspension (2.5×10^6 cells) was used to swab the entire oral cavity of the anesthetized mice.
Visual evaluation was done by carefully extending the tongue of randomly picked mice using blunt-end forceps, while the mice were under isoflurane sedation. Presence of thick, white curd-like patches indicated candidal infection. At day 3 post-infection, all animals were examined for evidence oral candidal infection by microbiological evaluation. The entire oral cavity of anesthetized mice was swabbed using a sterile calcium alginate disposable swab (Fisher Scientific), dampened with sterile PBS. Cells were then released from the swab into 1 ml PBS. Serial 10-fold dilutions were plated on SDA plates supplemented with streptomycin (30 μg/ml). Plates were incubated for 24 h at 37° C. and yeast cell count expressed as log10 of cfu/ml.
Tongues from sacrificed animals were used for histological studies. They were fixed in 10% formalin and embedded in paraffin. Serial five-μm sections were cut from the paraffin block and stained with periodic acid-Schiff (PAS) reagent for detection of C. albicans.
Mice were randomly divided into various treatment groups with 8 mice per group. Antifungal agents were employed on an equimolar basis, and included amphotericin B (1.75%), clotrimazole (0.66%), MUC7 12-mer (RKSYKCLHKRCR—SEQ ID NO:1) (L; 3%), MUC7 12-mer (D; 3%), MUC7 12-mer (D; 3%) containing Na2EDTA (1 mM), MUC7 12-mer (L; 3%) containing protease inhibitor cocktail (PIC) (1%), and Hsn5 12-mer (AKRHHGYKRKFH—SEQ ID NO:2) (3%). They were all emulsified in Pluronic F127, (20% lipoil), a polymer of polyoxyethylene and polyoxypropylene (non-ionic surfactant). Animals were anesthetized using isoflurane; while sedated, about 30 to 40 μl of the antifungal emulsion was applied on the tongue and spread throughout oral cavity. The treated mice were under sedation for additional 5 min under isoflurane. Animals were not given access to food and water for 1 h following the application.
Fungal burden was re-evaluated quantitatively after 3 and 6 days of treatment, using the same technique as the one used for initial evaluation. Randomly picked mice from each group was subjected to histopathological evaluation, after 6 days of treatment. Blood from randomly sacrificed mice from each treatment group was analyzed for any changes in the serum liver (AST, ALT, ALP etc.) and kidney enzymes (BUN, glucose, creatinine etc) levels.
Statistical analysis was performed using a significance level set at 0.05 (α) and a significant group size (n=8). Initial infection and antifungal treatment efficacy were determined using analysis of variance (ANOVA), expressed as log10 cfu, and Scheffe's multiple comparison test was used to determine the differences between various treatment groups.

The next data set concerns HOK-16B cells. Briefly: MTS cell viability assay. Format: cell-based, human. Particulars: 200 μM. As to the method: FIG. 6. Effect of peptides on viability of (A) HOK-16B cells and (B) KB cells. The toxic effect of the compounds on the cells was determined by calorimetric assay using a CellTiter 96 AQueous One Solution cell proliferation assay (MTS) kit, as described in the text. Briefly, the cells were grown to about 80% confluence, harvested, washed, resuspended in KGM, and dispensed into a 96-well microtiter plate. They were then exposed to different concentrations of peptides or amphotericin B at 37° C. and 5% CO2 for 1.5 h. MTS agent was then added to each well, and the cells were further incubated for 4 h. Absorbance at 490 nm was then measured using a microplate reader. MTS reduction is an indication of cell viability. The viability is expressed as relative absorbance (percentage of no-agent control). Data represent the average and standard deviation of results from two independent experiments.
Cell culture. The HOK-16B cell line (originated from primary normal human keratinocytes) was kindly provided by No-Hee Park, UCLA School of Dentistry. The KB cell line was obtained from the American Type Culture Collection (CLL-17). […]
MTS cell viability assay. The toxic effect of the compounds on the cells was determined by calorimetric assay using a CellTiter 96 AQueous One Solution cell proliferation assay (MTS) kit (Promega, Wis.). […] Absorbance at 490 nm was then measured using a microplate reader. […]
For orientation: Tetrazolium assays rely on reduction of a dye to a coloured formazan, in cell work by metabolically active cells.

Where no end group is shown, it is not given here.

On to AKRHHGYKRKFH [Hsn5 12-mer], for which, in the data set on C. albicans strain DIS, the “additional tissue change in tongue section” value is listed as “acanthosis of the stratum spinosum”. Take GIGKFLHSAKKFGKAFVGEIMNS [Magainin-II]: the “loss of HOK-16B cell viability” value in the data set with HOK-16B cells is listed as “about 30%”.
